According to article PMC9297947 (Chembiochem, 2021):
* marks the point of attachment. X1 = Nc1ncnc2c1ncn2[C@@H]1O[C@H](C(=O)NCCNC(=O)CCN2C(=O)CC(*)C2=O)[C@@H](O)[C@H]1O

Key:
AurA [1] = molecular target: T1, AurA (Homo sapiens, UniProt O14965); assay: IMAP TR-FRET kinase inhibition assay, AurA; assay type: biochemical; details: for IC50: FAM-Kemptide 1 µM, ATP 5 µM (Table S2; Figure 3 legend prints mM), TBS reaction buffer
T1 construct: purchased Carna Bioscience
T1 sequence (O14965 1-403): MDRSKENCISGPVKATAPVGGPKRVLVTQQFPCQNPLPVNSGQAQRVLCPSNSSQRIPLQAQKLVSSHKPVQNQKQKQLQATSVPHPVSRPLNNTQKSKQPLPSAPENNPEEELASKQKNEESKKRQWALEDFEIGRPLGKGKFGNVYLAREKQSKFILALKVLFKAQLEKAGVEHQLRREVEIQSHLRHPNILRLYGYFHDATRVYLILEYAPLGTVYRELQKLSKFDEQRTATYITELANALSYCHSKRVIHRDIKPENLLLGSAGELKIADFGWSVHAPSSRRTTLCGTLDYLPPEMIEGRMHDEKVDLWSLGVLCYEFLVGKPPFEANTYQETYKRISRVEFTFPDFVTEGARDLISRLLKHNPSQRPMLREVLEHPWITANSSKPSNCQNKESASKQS

AurA [2] = molecular target: T1, AurA; assay: Lineweaver-Burk inhibition mechanism (IMAP TR-FRET, various ATP), AurA; assay type: biochemical; details: Lineweaver-Burk plot, various concentrations of ATP
Description: Inhibition Mechanism of Peptide inhibitor Bip-3 for Aurora-A
Lineweaver-Burk plots were generated by plotting the TR-FRET ratio values, which are proportional to reaction velocity in these conditions [8,9], as a function of the velocity versus ATP concentration ratio (v/[ATP]) at different concentrations of the peptide [19,20].

[3] = system: phage infectivity of the host TG1 E. coli cells; assay: Phage infectivity after chemical modification; details: higher concentrations within 0.5–500 μM in PBS, room temperature, 2 h; P8-2KA phage clone
Protocol: Mild conditions are required for modification to minimize damage to phage clones so that they remain infectious to the host Escherichia coli cells.[[8a]] […] Phage clones (10^11 cfu) of P8‐2KA were treated with 200 μL of serially diluted maleimide‐PEG2‐biotin (0.5–500 μM) in PBS at room temperature for 2 h (Supporting Figure S3).
2. Chemical Modification of HLH peptide on Phage
All of the experiments were performed as described. 200 µL of phage (1012 cfu) was dissolved in PBS (pH 7.0), and 1 µL of 1 mM Maleimide-PEG2-biotin (EZ-Link® Maleimide-PEG2-Biotin, Thermo Scientific) was added and incubated for 2 hr at room temperature. To eliminate the residual reagents in phage solution, the treated solution was purified by ultrafiltration at 14,000 g for 20 min at 4 C by using Amicon® Ultra 0.5 mL Ultracel® 10K (Millipore). After discarding the flow-through, 200 µL of chilled PBST was added, and centrifugated as the same above. 100 µL of the chemically modified phage was added to Streptavidin High Capacity Coated Plate (SIGMA). Detection of phages was performed as described above by using Anti-M13 antibody conjugated with HRP.
3. The Infectivity of phages after Chemical Modification
All of the experiments were performed as described. […] Then the E. coli cells were inoculated onto LB/Agar containing 20 µg/mL chloramphenicol over night at 37°C, and colonies were counted. […]

KDR (VEGF receptor) = assay: Phage ELISA, KDR; assay type: binding; details: phage clone displaying P8-2KA, 10^10 cfu; HRP anti-M13, OD490
Protocol: (§1) All of the experiments were performed as described . In this study, the insert fragment encoding of helix-loop- helix (HLH) peptide P8-2KA and phage clone displaying no peptide were prepared. With regard to clone P8-2KA, the insert fragment was initially prepared by overlap extension PCR using P8-2KA 1 fwd and P8-2KA 1 rev. After purification of the fragment, restriction site SfiI and E-tag epitope were introduced by the following PCR using Sfi- YT1- CD 2 fwd and Etag- linker 2 rev, and the product was purified. The fragment was fused with the pIII gene amplified by the two primers prepcr and Sfi2fo with the template fdg3p0ss21, and a fragment encoding P8- 2KA- fused pIII was prepared as described. After digestion of the fragment by SfiI and the succeeding purification, the fragment was ligated with fdg3p0ss21-stop which was digested with the same restriction enzyme. As a negative control, we also prepared a clone displaying no HLH peptide on phage. To prepare the phage clone, only linker primer was used in the PCR together with Sfi2fo and the pIII gene amplified from the template fdg3p0ss21 as described above. […]
(§2) […] After was hing the wells with PBST 10 times, 100 µL of HRP Anti-M13 antibody conjugated (1:4000) was added, and the OD490 values were measured after adding o-phenylene diamine ([…] OPD, SIGMA) and adding 50 µL of

G‐CSF‐R [4] = assay: Phage ELISA, G-CSF-R; assay type: binding; details: phage clone displaying P8-2KA, 10^10 cfu; HRP anti-M13, OD490
Protocol: as §1, §2

G‐CSF‐R [5] = details: ref [2e] El-Haggar et al., Bioorg. Med. Chem. Lett. 2010; cited from earlier work
Description: Mild conditions are required for modification to minimize damage to phage clones so that they remain infectious to the host Escherichia coli cells.[[8a]]

anti‐E‐tag antibody = assay: Phage ELISA, anti-E-tag antibody; assay type: binding; details: phage clone displaying P8-2KA, 10^10 cfu; HRP anti-M13, OD490
Protocol: as §1, §2

BSA = assay: Phage ELISA, BSA; assay type: binding; details: phage clone displaying P8-2KA, 10^10 cfu; HRP anti-M13, OD490
Protocol: as §1, §2

[6] = system: AurA, AurB, AurC, PAK4, Erk2, PKACα, and Src; assay: IMAP TR-FRET kinase selectivity panel; assay type: biochemical; details: 5 μM Bip-3-Adc vs AurA
Protocol: Figure 3 Inhibitory activities of the selected peptide Bip‐3 and the adenosine‐tethering peptide Bip‐3‐Adc for AurA. (a) The structure of synthesized Bip‐3‐Adc, Bip‐3, and the original HLH peptide YT1. (b) The CD spectra of 20 μM Bip‐3 and YT1 measured in TBS at 20 °C. (c) The binding activity of Bip‐3 to immobilized AurA as determined by SPR experiments (TBS, 0.005 % P‐20, 25 °C). (d) Dose‐dependent inhibitory activities of Bip‐3 and Bip‐3‐Adc for AurA measured using an IMAP® TR‐FRET assay. Inhibition of AurA was determined at 100 ng/mL AurA, 1 mM 5FAM‐Kemptide, 5 mM ATP, in TBS reaction buffer. (e) Inhibitory activities of 5 μM Bip‐3‐Adc for AurA, AurB, AurC, PAK4, Erk2, PKACα, and Src, determined using the IMAP® TR‐FRET assay.
CD spectra were recorded in TBS at overall peptide concentration of 20 μM on a J-820 spectrometer at 20°C (PTC-423L thermostat, Jasco). The peptide concentrations were determined by measuring absorbance of aromatic residues of peptide dissolved in 6 M Gdn•HCl at UV 280 nm[14].
9. Surface Plasmon Resonance […]
denaturation of AurA, measurements were performed without regeneration of the sensor chip surface at each cycle, and any cycles were started after complete dissociation of analytes from the sensor chip. […] The concentration of adenosine-labeled peptide was determined by using the molar extinction coefficient of adenosine, and aromatic residues at UV 260 […]

Circular dichroism = assay type: physicochemical; details: CD, 20 μM peptide in TBS, 20 °C; compared with YT1
Aurora kinase A (AurA) = molecular target: T2, Aurora kinase A (AurA) (Homo sapiens, UniProt O14965); assay: SPR
T2 chain: T1 sequence (O14965 1-403)

[7] = 100 ng/mL AurA, 1 hr, room temperature

In the case of `Nc1ncnc2c1ncn2[C@@H]1O[C@H](CO)[C@@H](O)[C@H]1O` [adenosine], the IC50 (AurA [1]; [7]) is reported as 0.474 mM and the “mode of inhibition with respect to ATP” value (AurA [2]) is reported as “competitive inhibition for ATP”.

For `O=C(CCCC[C@@H]1SC[C@@H]2NC(=O)N[C@@H]21)NCCOCCOCCNC(=O)CCN1C(=O)C=CC1=O` [maleimide‐PEG2‐biotin], the “phage infectivity of TG1 E. coli cells” value [3] was “small loss of phage infectivity”.

For AELAALEAELAALE‐G7‐KLAALKAKLAALKAY [YT1], the “inhibitory activity for AurA” value (AurA [1]; [7]) was “no inhibitory activity”.

In the case of “CDGGSGGGS‐AELAALEAELAALE‐G7‐KLAMLKLKLAELKRY [P8‐2KA]”, the “binding to KDR” value (KDR (VEGF receptor)) is given as “no binding was observed”, the “binding to G-CSF-R” value (G‐CSF‐R [4]) is given as “selective binding” and the Kd (G‐CSF‐R [5]) is given as 0.214 µM. For the same molecule, the “binding to anti-E-tag antibody” value (anti‐E‐tag antibody) was “bound to anti‐E‐tag antibody” and the “binding to BSA” value (BSA) was “no binding was observed”.

In the case of “H-C(X1)DGGSGGGSAELAALEAELAALEGGGGGGGKLEYLKWKLWPLKGW-NH2 [Bip‐3‐Adc]”, the “fold difference in IC50 (inhibition of AurA) vs Bip-3” value (AurA [1]; Bip-3-Adc vs Bip-3 (IC50 103 μM)) is reported as 13 fold, the “fold difference in IC50 (inhibition of AurA) vs adenosine” value (AurA [1]; Bip-3-Adc vs adenosine (IC50 474 μM)) is reported as 62 fold and the “kinase selectivity” value [6] is reported as “highest inhibitory activity and remarkable selectivity for AurA”. For the same molecule, the “mode of inhibition with respect to ATP” value (AurA [2]) was “uncompetitive inhibition”.

For “H-CDGGSGGGSAELAALEAELAALEGGGGGGGKLEYLKWKLWPLKGW-NH2 [Bip‐3]”, the IC50 (AurA [1]; [7]) was 0.103 mM, the “α-helical content” value (Circular dichroism) was “high α‐helical content comparable with that of the original peptide YT1” and the “mode of inhibition with respect to ATP” value (AurA [2]) was “mixed inhibition”.

B1: Bip-3 (peptide)
chain: CDGGSGGGSAELAALEAELAALEGGGGGGGKLEYLKWKLWPLKGW
For B1, the Kd (Aurora kinase A (AurA)) was 13.7 µM.
